# Experimental data taken from US7282507B2, “Indole derivatives as selective androgen receptor modulators (SARMS)” (Janssen Pharmaceutica N.V., priority 2004, dated 2007).
# Several values for one entry are separate records, joined by “and”; a condition that tells them apart may be missing. Equal values may be shown once. Read-outs that look alike come from different tables or passages of the source.
# How the values were obtained:
# [1] = biological target: T1, androgen receptor (rat ventral prostate cytosol) (Rattus norvegicus, UniProt P15207); assay: Androgen Receptor Binding Using Rat Ventral Prostate Cytosol; settings: for inhibition at 1 µM: read-out: % Inhibition, Androgen Receptor Binding (Rat Cytosol); for IC50: read-out: IC50 (nM), Androgen Receptor Binding (Rat Cytosol)
# T1 construct: from tissue; host or cells: ventral prostate cytosol of castrated male Sprague Dawley or Wistar rats
# T1 sequence (P15207 1-902): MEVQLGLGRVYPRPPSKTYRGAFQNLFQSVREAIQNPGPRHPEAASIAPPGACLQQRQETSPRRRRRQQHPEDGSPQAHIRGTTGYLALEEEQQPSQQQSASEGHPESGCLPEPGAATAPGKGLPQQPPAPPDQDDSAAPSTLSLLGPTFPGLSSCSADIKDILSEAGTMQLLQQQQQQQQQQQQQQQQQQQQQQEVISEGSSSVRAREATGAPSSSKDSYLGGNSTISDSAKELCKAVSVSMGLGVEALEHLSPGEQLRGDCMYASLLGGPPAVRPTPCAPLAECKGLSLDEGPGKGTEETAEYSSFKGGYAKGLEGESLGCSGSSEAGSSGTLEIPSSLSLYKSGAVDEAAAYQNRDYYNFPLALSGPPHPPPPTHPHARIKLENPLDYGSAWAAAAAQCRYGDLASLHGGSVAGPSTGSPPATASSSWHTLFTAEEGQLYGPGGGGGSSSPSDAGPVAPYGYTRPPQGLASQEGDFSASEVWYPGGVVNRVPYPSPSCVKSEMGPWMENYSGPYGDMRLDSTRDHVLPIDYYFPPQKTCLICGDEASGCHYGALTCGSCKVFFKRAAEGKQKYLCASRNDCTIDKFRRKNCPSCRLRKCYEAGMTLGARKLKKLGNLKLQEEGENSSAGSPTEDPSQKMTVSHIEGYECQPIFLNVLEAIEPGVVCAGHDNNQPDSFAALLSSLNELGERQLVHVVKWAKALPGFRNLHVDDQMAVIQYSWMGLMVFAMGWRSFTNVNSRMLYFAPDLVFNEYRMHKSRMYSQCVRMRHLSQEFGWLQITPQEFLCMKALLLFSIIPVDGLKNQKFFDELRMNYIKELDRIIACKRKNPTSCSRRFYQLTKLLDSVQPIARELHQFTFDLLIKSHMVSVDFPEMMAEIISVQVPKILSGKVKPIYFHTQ
# How it was run: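 Cytosol from castrated rat ventral prostate was incubated overnight at 4°C with 0.5 nM [3H] tracer and compound in TED buffer (10 mM Tris-HCl pH 7.4, molybdate, EDTA, DTT, glycerol).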
# [2] = biological target: T2, androgen receptor LBD (Panvera) (Rattus norvegicus, UniProt P15207); assay: Androgen Receptor Filtration Binding Assay (PANVERA)
# T2 construct: 5 pmol androgen receptor LBD (Panvera); purchased Panvera
# T2 sequence (P15207 651-882 limits assumed): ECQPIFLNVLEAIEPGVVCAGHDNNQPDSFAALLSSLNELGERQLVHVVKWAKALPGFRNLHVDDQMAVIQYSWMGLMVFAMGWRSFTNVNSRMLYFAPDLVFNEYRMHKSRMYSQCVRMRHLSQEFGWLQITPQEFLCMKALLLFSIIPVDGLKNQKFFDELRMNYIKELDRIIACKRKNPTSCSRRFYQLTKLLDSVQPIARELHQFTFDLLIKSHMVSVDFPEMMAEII
# Protocol: The assay was run on a 96 well plate with each well filled with a total reaction volume 150 μL, of a solution containing 5 pmol androgen receptor LBD (Panvera) or 30 μL of freshly prepared rat cytosol, 0.5 nM [^3H] […] (TED buffer contains 10 mM Tris.HCl pH 7.4, 1 mM sodium molybdate, 1.5 mM EDTA, 1 mM DTT and 10% (v/v) glycerol.)
# On day one, the solution containing receptor, tracer and TED buffer was distributed into a 96 well plate. Diluted test compound or control vehicle was then added to individual wells and the plate incubated at 4° C. overnight.
# On day two, to each well was then added 20 μL human γ-globulin (ICN 823102), prepared at 25 mg/ml in TE pH 8.0, and 55 μL 40% polyethylene glycol 8000 (J T Baker U222-08), prepared in TE pH 8.0. The plate was incubated at 4° C. for 60 minutes. During incubation, the harvester was rinsed with 10% PEG 8000, prepared in TE pH 8.0, and a GF/C Unifilter-96 was pre-wet with 10% PEG. The binding reaction was filtered, the retentate was washed three times with 10% PEG and dried under vacuum for a couple of minutes, then dried at 50° C. for 5 min and the plate was bottom sealed. Next, 25 μL of Microscint-20 (Packard) was added to the filter wells and the plate was top sealed. The plate wells were then counted on a TopCount (Packard).
# Counts per well were measured and IC50s determined by linear regression.
# [3] = tested on: testosterone-enhanced ventral prostate and seminal vesicle weights; assay: Ventral Prostate and Seminal Vesicle Weight in vivo Assay; set-up: species or system rat; settings: immature castrated male Sprague Dawley rats, once daily for five days, usually orally 40 mg/kg, with testosterone propionate 2 mg/kg s.c. Note: key: 'active' if the non weight adjusted prostate weight was ≦40 mg or the % Inhibition prostate weight, body weight adjusted was ≧40% @ 2 mg/day dosage; ID50's, if determined, of ≦15 mg/day also indicated an 'active' compound; listed herein as 'inactive' as they did not meet the specified criteria defined above.
# How it was run: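 Immature castrated male Sprague Dawley rats (~50 g) were dosed once daily for five days with compound, usually orally at 40 mg/kg in cyclodextrin or methylcellulose vehicle. Testosterone propionate was co-dosed subcutaneously at 2 mg/kg. On day six, ventral prostate and seminal vesicle wet weights were measured; activity was judged on prostate weight or body-weight-adjusted % inhibition.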
# [4] = biological target: T3, androgen receptor (AdEasy+rAR, COS-7 cells) (Rattus norvegicus, UniProt P15207); assay: COS-7 Whole-Cell Androgen Receptor Binding Assay, Adenovirus Transduction
# T3 construct: expressed in transfected cells; host or cells: COS-7 cells transduced with adenovirus AdEasy+rAR
# T3 sequence (P15207 1-902): T1 sequence (P15207 1-902)
# How it was run: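 COS-7 cells in phenol red-free DMEM/F12 with 10% charcoal-treated FBS were transduced with AdEasy+rAR adenovirus (moi 1:50 per well), exposed to test compound in duplicate and incubated for 48 h at 37° C. Cells were then lysed in 0.5% Triton X-100 and bound radioactivity counted by scintillation.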
# [5] = [3H] R1881 tracer 0.5 nM, read-out: IC50 (nM), Androgen Receptor Binding (Panvera)
# [6] = IC50 (nM), Androgen Receptor Binding (Panvera)
# [7] = read-out: IC50 (nM), Androgen Receptor Binding (Panvera)
SMILES,inhibition at 1 µM ([1]; Concentration 1000 nM) [%],"IC50 [2, 5]",further results
COC(=O)c1ccc2c(c1)cc(C(C)(O)CSC1CCCCC1)n2S(C)(=O)=O (centres unmarked) [Compound 93],35,23000 nM,–
CC(O)(COC(=O)c1ccc(F)cc1)c1cc2cc(C#N)c(C(F)(F)F)cc2[nH]1 (centres unmarked) [Compound 77],-9.25,1110 nM,–
CC(O)(CSc1ccc(Cl)cc1)c1cc2ccccc2[nH]1 (centres unmarked) [Compound 89],–,> 9600 nM,–
CC(O)(COC(=O)c1ccc(Cl)cc1)c1cc2cc(Cl)c(C(F)(F)F)cc2[nH]1 (racemic) [Compound 62],–,325 nM,"% Inhibition, Androgen Receptor Binding (Rat Cytosol) ([1]; Concentration 1000 nM): 69%"
CC(O)(CSc1ccc(Cl)cc1)c1cc2cc([N+](=O)[O-])c(C(F)(F)F)cc2o1 (racemic) [Compound 8],-2,2650 nM,–
CC(O)(CSc1ccc(F)cc1)c1cc2nc(C(F)(F)F)ccc2[nH]1 (racemic) [Compound 5],5.5,39000 nM,–
CC(O)(CSc1ccc(Cl)cc1)c1cc2cc(Cl)ccc2n1S(C)(=O)=O (centres unmarked) [Compound 101],-24.9,3850 nM,–
CS(=O)(=O)n1c(C2(O)CCN(C(=O)OCc3ccccc3)CC2)cc2cc(Cl)c(C(F)(F)F)cc21 [Compound 19],–,> 100000 nM,"% Inhibition, Androgen Receptor Binding (Rat Cytosol) ([1]; Concentration 1000 nM): −55%"
CC(O)(COC(=O)c1ccccc1Cl)c1cc2cc([N+](=O)[O-])c(C(F)(F)F)cc2[nH]1 (centres unmarked) [Compound 54],–,–,"inhibition at 1 µM [1]: 5.5%; IC50 [2, 6]: 220 nM; IC50 [2, 7]: 465 nM"
CC(O)(COC(=O)c1ccccc1)c1cc2cc(Cl)c(C(F)(F)F)cc2[nH]1 (centres unmarked) [Compound 61],73,440 nM,–
CC(O)(CSc1ccc(Cl)cc1)c1cc2cc(C#N)c(C(F)(F)F)cc2[nH]1 (centres unmarked) [Compound 96],–,–,"% Inhibition, Androgen Receptor Binding (Rat Cytosol) ([1]; 1 µM): 59%; inhibition at 1 µM [1]: 74%; IC50 [2, 6]: 820 nM; IC50 [2, 7]: 1710 nM"
CC(O)(C[S+]([O-])c1ccc(F)cc1)c1cc2cc(Cl)c(C(F)(F)F)cc2[nH]1 (centres unmarked) [Compound 114],–,4900 nM,"% Inhibition, Androgen Receptor Binding (Rat Cytosol) ([1]; Concentration 1000 nM, 1 µM): 61%"
CC(O)(CSc1ccc(Cl)cc1)c1cc2cc(Cl)c(C(F)(F)F)cc2[nH]1 (centres unmarked) [Compound 82],69.8,185 nM and 200 nM,"% Inhibition, Androgen Receptor Binding (Rat Cytosol) ([1]; Concentration 1000 nM, 1 µM): 83%; IC50 [1]: 640 nM"
CC(O)(CSc1ccc(F)cc1)c1cc2cc(Cl)ccc2n1S(C)(=O)=O (centres unmarked) [Compound 99],8.5,5750 nM,–
CC(O)(COC(=O)c1ccccc1)c1cc2cc([N+](=O)[O-])c(C(F)(F)F)cc2[nH]1 (centres unmarked) [Compound 64],61.5,815 nM,–
CC(O)(COC(=O)c1ccc(Cl)cc1)c1cc2cc(Cl)ccc2[nH]1 (centres unmarked) [Compound 53],9.75,1970 nM,–
CC(O)(CSc1ccc(Cl)cc1)c1cc2cc(Cl)ccc2[nH]1 (centres unmarked) [Compound 102],73.5,665 nM,IC50 [1]: 140 nM
CC(O)(CSc1ccc(F)cc1)c1cc2cc(Cl)c(C(F)(F)F)cc2[nH]1 (centres unmarked) [Compound 83],69,160 nM and 545 nM,IC50 [1]: 120 nM

SMILES,inhibition at 1 µM ([1]; Concentration 1000 nM) [%],"IC50 [2, 5]",further results
CC(O)(CSc1ccccc1)c1cc2cc(C#N)c(C(F)(F)F)cc2[nH]1 (centres unmarked) [Compound 95],56.5,3000 nM,–
CC(O)(Sc1ccc(Cl)c(Cl)c1)c1cc2cc([N+](=O)[O-])c(C(F)(F)F)cc2[nH]1 (racemic) [Compound 254],–,1020 nM and 920 nM,"% Inhibition, Androgen Receptor Binding (Rat Cytosol) ([1]; Concentration 1000 nM): 41%; IC50 [1]: 670 nM"
CC(O)(COC(=O)c1ccc(Cl)c(Cl)c1)c1cc2cc(C#N)c(C(F)(F)F)cc2[nH]1 (centres unmarked) [Compound 78],16.6,3560 nM,–
CS(=O)(=O)n1c(C2(O)CCNCC2)cc2cc(Cl)c(C(F)(F)F)cc21 [Compound 23],–,54000 nM,"% Inhibition, Androgen Receptor Binding (Rat Cytosol) ([1]; Concentration 1000 nM): −1.5%; IC50 [1]: 6000 nM"
CC(O)(CSc1ccc(F)cc1)c1cc2cc(C#N)c(C(F)(F)F)cc2[nH]1 (centres unmarked) [Compound 109],49,2600 nM,–
COC(=O)c1ccc2[nH]c(C(C)(O)CSc3ccc(Cl)cc3)cc2c1 (centres unmarked) [Compound 97],25,7400 nM,–
CC(O)(C[S+]([O-])c1ccc(F)cc1)c1cc2cc(Cl)c(C(F)(F)F)cc2[nH]1 (centres unmarked) [Compound 113],–,5100 nM,active / inactive: inhibition of testosterone-enhanced prostate weight [3]: inactive
OC1(c2cc3cc(Cl)c(C(F)(F)F)cc3[nH]2)CCN(Cc2ccccc2)CC1 [Compound 22],–,> 9600 nM,IC50 [1]: > 7700 nM
CC(O)(C[S+]([O-])c1ccccc1)c1cc2cc(Cl)c(C(F)(F)F)cc2[nH]1 (centres unmarked) [Compound 112],39.5,4100 nM,–
CC(O)(SC1CCCCC1)c1cc2cc([N+](=O)[O-])c(C(F)(F)F)cc2[nH]1 (racemic) [Compound 256],–,2650 nM,–
CC(O)(COC(=O)c1ccccc1)c1cc2cc(C#N)c(C(F)(F)F)cc2[nH]1 (centres unmarked) [Compound 75],–,–,"inhibition at 1 µM [1]: 13.2%; IC50 [2, 6]: 9100 nM"
CS(=O)(=O)n1c(C2(O)CCN(Cc3ccccc3)CC2)cc2cc(Cl)c(C(F)(F)F)cc21 [Compound 21],–,> 10200 nM,"% Inhibition, Androgen Receptor Binding (Rat Cytosol) ([1]; Concentration 1000 nM): −41.5%"
CC(O)(COC(=O)c1c(Cl)cccc1Cl)c1cc2cc([N+](=O)[O-])c(C(F)(F)F)cc2[nH]1 (centres unmarked) [Compound 52],94.5,150 nM,IC50 [1]: 79 nM
CC(O)(CSc1ccc([N+](=O)[O-])cc1)c1cc2cc([N+](=O)[O-])c(C(F)(F)F)cc2[nH]1 (centres unmarked) [Compound 103],–,1650 nM,–
CC(O)(SC1CCCCC1)c1cc2cc(C#N)c(C(F)(F)F)cc2[nH]1 (racemic) [Compound 257],–,5150 nM,–
CC(O)(Sc1ccc(Cl)cc1)c1cc2cc([N+](=O)[O-])c(C(F)(F)F)cc2[nH]1 (racemic) [Compound 259],–,915 nM,–
CCSCC(C)(O)c1cc2cc(Cl)c(C(F)(F)F)cc2[nH]1 (centres unmarked) [Compound 152],–,–,"inhibition at 3 µM ([1]; Concentration 3000 nM): 97%; inhibition at 3 µM ([4]; concentration of 3000 nM): 39%; IC50 ([4]; read-out: IC50 (nM), COS Binding): 108 nM; active / inactive: inhibition of testosterone-enhanced prostate weight [3]: inactive"
